Laboratory results from paper PMC2441954, “Phase I pharmacokinetic and pharmacodynamic study of the prenyl transferase inhibitor AZD3409 in patients with advanced cancer” (British Journal of Cancer, 2008).
Read-outs that look alike come from different tables or passages of the source.

Test: Plasma pharmacokinetics (LC-MS/MS, noncompartmental) in phase I patients
Type: in vivo, human
Conditions: for Cmax / AUC: human, plasma, oral; for AUC: read-out: AUC0−τ
Procedure: Pharmacokinetic studies were performed in all patients. Ethylenediaminetetraacetic acid blood samples were collected during the first cycle: on day 1 before the first drug intake and 0.5, 1, 2, 4, 6, 8, 12 and 24 h after administration; on days 3, 8 and 15 before the morning drug intake and 2 h after administration; and on day 22 before the morning drug intake and 0.5, 1, 2, 4, 6, 8, 12 and 24 h after administration. Samples were immediately put on ice and centrifuged at 4°C for 10 min at 1500 g. The resulting plasma was stored at −70°C until analysis. Plasma samples of the last three patients were not measured as the study was stopped before analysis.
The total plasma concentrations of AZD3409 ester and AZD3409 acid were determined by LC–MS/MS. The plasma samples were treated with dithiothreitol to reduce any disulphide bonds. The sample pretreatment was based on protein precipitation with acidic acetonitrile. Isotopically labelled analogues were used as internal standards. The method has been validated regarding selectivity, accuracy, precision and stability in human plasma. The lower limit of quantification was 3 ng ml^−1 for both AZD3409 ester and AZD3409 acid, with a 50 μl sample volume.
The following PK parameters were determined, either by direct observation or by noncompartmental analysis (WinNonlin, version 5.0.1; Pharsight, Mountain View, CA, USA): the minimal plasma concentration (Cmin), the maximal plasma concentration (Cmax), the area under the curve within one dosing interval (AUC0−τ) and total plasma clearance (Cl/F). Correlations between dose and Cmax levels and between dose and AUC0−τ were analysed on day 1 using the nonparametric Spearman's ρ (Rs) correlation test. Accumulation was tested with an exact Wilcoxon's rank paired signed test. Linear measures mixed effects models were constructed with SAS (SAS Institute Inc., Cary, NC, USA) to determine the effect of the dose on the trough plasma concentrations of both metabolites. The daily dose, time (days), gender and age were considered to be a fixed effect, and the patient variable was considered to be a random effect. Owing to the distribution of the trough plasma concentration log transformation was applied.

[1] = 500 mg once daily, day 1, dose 500 (once daily), N=3, mean (SD)
[2] = 500 mg once daily, day 22, dose 500 (once daily), N=2, absolute values
[3] = 750 mg b.i.d., day 1, dose 750 b.i.d., N=8, mean (SD)
[4] = 750 mg b.i.d., day 22, dose 750 b.i.d., N=3, mean (SD)
[5] = 1000 mg once daily, day 1, dose 1000 (once daily), N=3, mean (SD)
[6] = 1000 mg once daily, day 22, dose 1000 (once daily), N=3, mean (SD)
[7] = 1250 mg b.i.d., day 1, dose 1250 b.i.d., N=6, mean (SD)
[8] = 1250 mg b.i.d., day 22, dose 1250 b.i.d., N=4, mean (SD)
[9] = 1500 mg b.i.d., day 1, dose 1500 b.i.d., N=2, absolute values
[10] = 1750 mg b.i.d., day 1, dose 1750 b.i.d., N=4, mean (SD)
[11] = 1750 mg b.i.d., day 22, dose 1750 b.i.d., N=1

SMILES: CSCC[C@H](NC(=O)c1cc(NC[C@@H]2C[C@H](S)CN2)ccc1CCc1ccc(F)cc1)C(=O)OC(C)C [AZD3409 ester]
- AUCester/AUCacid ratio (day 1): 2.5
- Spearman correlation (Rs) between dose and AUC (day 1): 0.52
- Spearman correlation (Rs) between dose and Cmax (day 1): 0.43
- AUCester/AUCacid ratio (day 22): 2.0
- Cl/F (day 22, dose 500 (once daily), N=2, absolute values): [263–308] l h^−1
- Cl/F (day 22, dose 750 b.i.d., N=3, mean (SD)): 309 (151) l h^−1
- Cl/F (day 22, dose 1000 (once daily), N=3, mean (SD)): 319 (172) l h^−1
- Cl/F (day 22, dose 1250 b.i.d., N=4, mean (SD)): 474 (231) l h^−1
- Cl/F (day 22, dose 1750 b.i.d., N=1): 1145 L/h
- Ratio AUC0−τ day 22/day 1 (dose 500 (once daily), N=2, absolute values): [1.42–8.31]
- Ratio AUC0−τ day 22/day 1 (dose 750 b.i.d., N=3, mean (SD)): 7.03 (8.46)
- Ratio AUC0−τ day 22/day 1 (dose 1000 (once daily), N=3, mean (SD)): 1.54 (0.86)
- Ratio AUC0−τ day 22/day 1 (dose 1250 b.i.d., N=4, mean (SD)): 1.28 (0.70)
- Ratio AUC0−τ day 22/day 1 (dose 1750 b.i.d., N=1): 0.97
- Cmax [1]: 82.1 ng/mL
- AUC [1]: 395 ng·h/mL
- Cmax [2]: 229 to 257 ng/mL
- AUC [2]: 1230 to 1460 ng·h/mL
- Cmax [3]: 245 ng/mL
- AUC [3]: 1070 ng·h/mL
- Cmax [4]: 298 ng/mL
- AUC [4]: 1720 ng·h/mL
- Cmax [5]: 318 ng/mL
- AUC [5]: 1540 ng·h/mL
- Cmax [6]: 296 ng/mL
- AUC [6]: 1930 ng·h/mL
- Cmax [7]: 338 ng/mL
- AUC [7]: 1780 ng·h/mL
- Cmax [8]: 366 ng/mL
- AUC [8]: 2120 ng·h/mL
- Cmax [9]: 227 to 315 ng/mL
- AUC [9]: 1460 to 1630 ng·h/mL
- Cmax [10]: 362 ng/mL
- AUC [10]: 1690 ng·h/mL
- Cmax [11]: 445 ng/mL
- AUC [11]: 1100 ng·h/mL
